SMILES strings stand for the structures. pEC50: −log10 of the molar value.

In general, pEC50 refers to the negative decadic logarithm of the EC50, by convention in mol/L.

In the assay the target is T1, GLP-1R (Homo sapiens, UniProt P43220).
T1 construct: host or cells: CHO cells
T1 sequence (P43220 24-463): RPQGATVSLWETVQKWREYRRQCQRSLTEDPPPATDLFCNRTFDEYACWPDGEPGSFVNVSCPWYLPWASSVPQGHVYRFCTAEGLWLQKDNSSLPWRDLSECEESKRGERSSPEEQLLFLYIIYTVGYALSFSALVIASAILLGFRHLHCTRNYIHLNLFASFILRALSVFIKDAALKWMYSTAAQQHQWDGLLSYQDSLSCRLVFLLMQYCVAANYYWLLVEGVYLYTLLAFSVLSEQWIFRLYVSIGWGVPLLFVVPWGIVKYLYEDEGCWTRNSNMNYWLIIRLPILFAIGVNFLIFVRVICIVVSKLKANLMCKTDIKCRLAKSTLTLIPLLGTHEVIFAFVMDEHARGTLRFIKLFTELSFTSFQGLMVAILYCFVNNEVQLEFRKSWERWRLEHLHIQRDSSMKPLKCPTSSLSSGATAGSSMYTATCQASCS
Put plainly: GLP-1R activation cAMP assay (Assay 1 or Assay 2). It is filed as cell-based. The note with it: cAMP increase in CHO cells stably expressing GLP-1R; compounds run on one of the two cAMP assays. The procedure:
GLP-1R ACTIVATION—cAMP Assay 1
GLP-1R activation by compounds of the present disclosure was quantified by measuring cAMP increase in CHO cells stably expressing GLP-1R (MultiSpan product #C1267-1a). The cells were harvested and plated in growth medium (DMEM/F-12 (Corning product #10-090-CV) supplemented with 10% FBS (HyClone product #SH30071-03), penicillin/streptomycin (Corning product #30-002CI) and 10 μg/ml puromycin (Gibco product #A11138-03)) at 1,000 cells/well in a 384-well plate (Greiner product #781080). The cells were then incubated overnight at 37° C., 5% CO2. The next day, the medium was removed and the cells were washed with DPBS (Corning product #21-031-CM) before adding the assay medium (HBSS, Corning product #21-023-CV) with 20 mM Hepes (Gibco product #15630-080) and 0.1% BSA (Rockland Immunochemicals product #BSA-1000)). Following the medium change, the cells were incubated for 1 hour at 37° C., 5% CO2. The tested GLP-1 compound was added to the cells in a 10-point dose response followed by a 30-minute incubation at 37° C., 5% CO2. cAMP concentration increase was then detected using Cisbio's cAMP Gs Dynamic Kit (product #62AM4PEC) according to the manufacturer's protocol. The response was plotted against the log of the agonist concentration and fitted to a sigmoidal equation to determine the EC50.
GLP-1R ACTIVATION—cAMP Assay 2
GLP-1R activation by small molecule agonists was quantified by measuring cAMP increase in CHO cells stably expressing GLP-1R (MultiSpan product #C1267-1a). 50 nL of agonists were pre-spotted in a 10-point dose response onto 384-well plate (Corning product #CL3826) using the Labcyte Echo System.
Compound `Cc1c(C#Cc2ccc(COc3cccc(-c4cc(F)c(Cc5nc6ccc(C(=O)O)cc6n5C[C@@H]5CCO5)cc4F)n3)c(F)c2)cnn1C` [Example 364, (S)-2-(4-(6-((4-((1,5-dimethyl-1H-pyrazol-4-yl)ethynyl)-2-fluorobenzyl)oxy)pyridin-2-yl)-2,5-difluorobenzyl)-1-(oxetan-2-ylmethyl)-1H-benzo[d]imidazole-6-carboxylic acid] showed a pEC50 of 9.03.

The compound `CC1(C)COC[C@H]1n1c(Cc2cc(F)c(-c3ccnc(OCc4ccc(Cl)s4)n3)cc2F)nc2ccc(C(=O)O)cc21` [Example 418, (S)-2-(4-(2-((5-chlorothiophen-2-yl)methoxy)pyrimidin-4-yl)-2,5-difluorobenzyl)-1-(4,4-dimethyltetrahydrofuran-3-yl)-1H-benzo[d]imidazole-6-carboxylic acid] showed a pEC50 of 9.42.

In the case of `NC(=O)c1cc(F)c(COc2nc(-c3cc(F)c(Cc4nc5c(F)cc(C(=O)O)cc5n4C[C@@H]4CCO4)cc3F)ccc2F)cn1` [Example 208, (S)-2-(4-(6-((6-carbamoyl-4-fluoropyridin-3-yl)methoxy)-5-fluoropyridin-2-yl)-2,5-difluorobenzyl)-4-fluoro-1-(oxetan-2-ylmethyl)-1H-benzo[d]imidazole-6-carboxylic acid], the pEC50 was 10.70.

In turn, `O=C(O)c1ccc2nc(Cc3cc(F)c(-c4cccc(OCc5ncc(Br)s5)n4)cc3F)n(C[C@@H]3CCO3)c2c1` [Example 22, (S)-2-(4-(6-((5-bromothiazol-2-yl)methoxy)pyridin-2-yl)-2,5-difluorobenzyl)-1-(oxetan-2-ylmethyl)-1H-benzo[d]imidazole-6-carboxylic acid] had a pEC50 of 9.77.

The compound `Cc1cc(Cc2nc3ccc(C(=O)O)cc3n2[C@@H]2COCC2(C)C)c(Cl)cc1-c1cccc(OCc2ncc(C(C)(F)F)s2)n1` [Example 428, (S)-2-(2-chloro-4-(6-((5-(1,1-difluoroethyl)thiazol-2-yl)methoxy)pyridin-2-yl)-5-methylbenzyl)-1-(4,4-dimethyltetrahydrofuran-3-yl)-1H-benzo[d]imidazole-6-carboxylic acid] gave a pEC50 of 8.44.

For `COc1nnc(COc2cccc(-c3cc(F)c(Cc4nc5c(F)cc(C(=O)O)cc5n4[C@@H]4COCC4(C)C)cc3F)n2)s1` [Example 345, (S)-2-(2,5-difluoro-4-(6-((5-methoxy-1,3,4-thiadiazol-2-yl)methoxy)pyridin-2-yl)benzyl)-1-(4,4-dimethyltetrahydrofuran-3-yl)-4-fluoro-1H-benzo[d]imidazole-6-carboxylic acid], the pEC50 is 10.57.

On to `O=C(O)c1ccc2nc(Cc3cc(F)c(-c4cccc(OCc5cc(C(F)(F)F)no5)n4)cc3F)n(C[C@@H]3CCO3)c2c1` [Example 60, (S)-2-(2,5-difluoro-4-(6-((3-(trifluoromethyl)isoxazol-5-yl)methoxy)pyridin-2-yl)benzyl)-1-(oxetan-2-ylmethyl)-1H-benzo[d]imidazole-6-carboxylic acid], for which the pEC50 is 8.84.

For the compound `O=C(O)c1ccc2nc(Cc3cc(F)c(-c4cccc(OCc5ncc(C#CC6(O)CCC6)s5)n4)cc3F)n(C[C@@H]3CCO3)c2c1` [Example 323, (S)-2-(2,5-difluoro-4-(6-((5-((1-hydroxycyclobutyl)ethynyl)thiazol-2-yl)methoxy)pyridin-2-yl)benzyl)-1-(oxetan-2-ylmethyl)-1H-benzo[d]imidazole-6-carboxylic acid], the negative-log EC50 (pEC50) was 9.55.

Consider `Cn1nc(COc2cccc(-c3cc(F)c(Cc4nc5ccc(C(=O)O)cc5n4C[C@@H]4CCO4)cc3F)n2)cc1C#N` [Example 207, (S)-2-(4-(6-((5-cyano-1-methyl-1H-pyrazol-3-yl)methoxy)pyridin-2-yl)-2,5-difluorobenzyl)-1-(oxetan-2-ylmethyl)-1H-benzo[d]imidazole-6-carboxylic acid], for which the pEC50 is 9.34.

`Cn1ccc(CNC(=O)c2cc(Cl)c(COc3cccc(-c4cc(F)c(Cc5nc6ccc(C(=O)O)cc6n5C[C@@H]5CCO5)cc4F)n3)cn2)n1` [Example 366, (S)-2-(4-(6-((4-chloro-6-(((1-methyl-1H-pyrazol-3-yl)methyl)carbamoyl)pyridin-3-yl)methoxy)pyridin-2-yl)-2,5-difluorobenzyl)-1-(oxetan-2-ylmethyl)-1H-benzo[d]imidazole-6-carboxylic acid]: the pEC50 is 9.25.

The compound `Cn1nccc1CNC(=O)c1cc(Cl)c(COc2cccc(-c3cc(F)c(Cc4nc5ccc(C(=O)O)cc5n4C[C@@H]4CCO4)cc3F)n2)cn1` [Example 195, (S)-2-(4-(6-((4-chloro-6-(((1-methyl-1H-pyrazol-5-yl)methyl)carbamoyl)pyridin-3-yl)methoxy)pyridin-2-yl)-2,5-difluorobenzyl)-1-(oxetan-2-ylmethyl)-1H-benzo[d]imidazole-6-carboxylic acid] had a pEC50 of 9.96.

`CCOc1nnc(COc2nc(-c3cc(Cl)c(Cc4nc5c(F)cc(C(=O)O)cc5n4[C@@H]4COCC4(C)C)cc3C)ccc2F)s1` [Example 421, (S)-2-(2-chloro-4-(6-((5-ethoxy-1,3,4-thiadiazol-2-yl)methoxy)-5-fluoropyridin-2-yl)-5-methylbenzyl)-1-(4,4-dimethyltetrahydrofuran-3-yl)-4-fluoro-1H-benzo[d]imidazole-6-carboxylic acid] showed a negative-log EC50 (pEC50) of 10.06.

`CC1(C)COC[C@H]1n1c(Cc2cc(F)c(-c3cccc(OCc4nnc(C5CC5)s4)n3)cc2F)nc2ccc(C(=O)O)cc21` [Example 431, (S)-2-(4-(6-((5-cyclopropyl-1,3,4-thiadiazol-2-yl)methoxy)pyridin-2-yl)-2,5-difluorobenzyl)-1-(4,4-dimethyltetrahydrofuran-3-yl)-1H-benzo[d]imidazole-6-carboxylic acid] had a negative-log EC50 (pEC50) of 9.71.

As for `O=C(O)c1ccc2nc(Cc3cc(F)c(-c4cccc(OCc5ccc(-c6cnn(C7COC7)c6)cc5F)n4)cc3F)n(C[C@@H]3CCO3)c2c1` [Example 164, (S)-2-(2,5-difluoro-4-(6-((2-fluoro-4-(1-(oxetan-3-yl)-1H-pyrazol-4-yl)benzyl)oxy)pyridin-2-yl)benzyl)-1-(oxetan-2-ylmethyl)-1H-benzo[d]imidazole-6-carboxylic acid], the pEC50 was 10.00.

In the case of `Cn1ncc(C#Cc2ccc(COc3cccc(-c4cc(F)c(Cc5nc6ccc(C(=O)O)cc6n5C[C@@H]5CCO5)cc4F)n3)c(F)c2)c1Cl` [Example 361, (S)-2-(4-(6-((4-((5-chloro-1-methyl-1H-pyrazol-4-yl)ethynyl)-2-fluorobenzyl)oxy)pyridin-2-yl)-2,5-difluorobenzyl)-1-(oxetan-2-ylmethyl)-1H-benzo[d]imidazole-6-carboxylic acid], the negative logarithm of the EC50 (pEC50) was 9.21.

In the case of `CCOc1nnc(COc2nc(-c3cc(Cl)c(Cc4nc5ccc(C(=O)O)cc5n4[C@@H]4COCC4(C)C)cc3C)ccc2F)s1` [Example 420, (S)-2-(2-chloro-4-(6-((5-ethoxy-1,3,4-thiadiazol-2-yl)methoxy)-5-fluoropyridin-2-yl)-5-methylbenzyl)-1-(4,4-dimethyltetrahydrofuran-3-yl)-1H-benzo[d]imidazole-6-carboxylic acid], the pEC50 is 9.75.

On to `O=C(O)c1ccc2nc(Cc3cc(F)c(-c4cccc(OCc5ncc(C#CC6CCC6)s5)n4)cc3F)n(C[C@@H]3CCO3)c2c1` [Example 333, (S)-2-(4-(6-((5-(cyclobutylethynyl)thiazol-2-yl)methoxy)pyridin-2-yl)-2,5-difluorobenzyl)-1-(oxetan-2-ylmethyl)-1H-benzo[d]imidazole-6-carboxylic acid], for which the pEC50 was 9.69.

Consider `COc1nnc(COc2cccc(-c3cc(F)c(Cc4nc5ccc(C(=O)O)cc5n4CC4(C(F)F)CC4)cc3F)n2)s1` [Example 276, 2-(2,5-difluoro-4-(6-((5-methoxy-1,3,4-thiadiazol-2-yl)methoxy)pyridin-2-yl)benzyl)-1-((1-(difluoromethyl)cyclopropyl)methyl)-1H-benzo[d]imidazole-6-carboxylic acid], for which the pEC50 was 8.88.

Compound `COc1nnc(COc2cccc(-c3cc(F)c(Cc4nc5ccc(C(=O)O)cc5n4CC4(CF)CC4)c(F)c3F)n2)s1` [Example 271, 1-((1-(fluoromethyl)cyclopropyl)methyl)-2-(2,3,6-trifluoro-4-(6-((5-methoxy-1,3,4-thiadiazol-2-yl)methoxy)pyridin-2-yl)benzyl)-1H-benzo[d]imidazole-6-carboxylic acid] gave a negative logarithm of the EC50 (pEC50) of 9.05.

In the case of `O=C(O)c1ccc2nc(Cc3cc(F)c(-c4cccc(OCc5ccc(C#Cc6cc[nH]c(=O)c6)cc5F)n4)cc3F)n(C[C@@H]3CCO3)c2c1` [Example 356, (S)-2-(2,5-difluoro-4-(6-((2-fluoro-4-((2-oxo-1,2-dihydropyridin-4-yl)ethynyl)benzyl)oxy)pyridin-2-yl)benzyl)-1-(oxetan-2-ylmethyl)-1H-benzo[d]imidazole-6-carboxylic acid], the pEC50 is 10.00.

The values above are taken from patent US20250312352A1, “GLP-1R MODULATING COMPOUNDS” (Gilead Sciences, Inc., priority 2021, published 2025).
